# Data as given in ChEMBL document CHEMBL5325488, “Discovery of SMD-3040 as a Potent and Selective SMARCA2 PROTAC Degrader with Strong in vivo Antitumor Activity” (J Med Chem, 2023).
# Columns and labels:
# [1] = biological target: T1, von Hippel-Lindau disease tumor suppressor/SWI/SNF-related matrix-associated actin-dependent regulator of chromatin subfamily A member 2 (Homo sapiens, UniProt P51531+P40337); assay: PROTAC activity at VHL/wild-type SMARCA2 in human NCI-H838 cells assessed as induction of SMARCA2 degradation incubated for 24 hrs by Western blotting analysis; type: cell-based
# [2] = biological target: T2, von Hippel-Lindau disease tumor suppressor/SWI/SNF-related matrix-associated actin-dependent regulator of chromatin subfamily A member 4 (Homo sapiens, UniProt P51532+P40337); assay: PROTAC activity at VHL/C-terminal HiBiT fused SMARCA4 in human HeLa cells assessed as induction of SMARCA4 degradation by measuring maximal efficacy at 0.001 to 10 uM incubated for 6 hrs by Nano-Glo HiBiT analysis relative to control; type: cell-based; conditions: dose 0.001-10 µM
# Target sequence in this assay (P40337 whole entry, looked up, the tested form may be a part): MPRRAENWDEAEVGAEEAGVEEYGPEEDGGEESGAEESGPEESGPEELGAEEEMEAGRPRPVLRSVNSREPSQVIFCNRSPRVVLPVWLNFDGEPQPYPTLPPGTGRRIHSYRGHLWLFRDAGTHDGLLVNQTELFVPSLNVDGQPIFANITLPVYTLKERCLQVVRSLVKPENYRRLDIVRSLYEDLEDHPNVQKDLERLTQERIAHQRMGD
# Target sequence in this assay (P51532 whole entry, looked up, the tested form may be a part): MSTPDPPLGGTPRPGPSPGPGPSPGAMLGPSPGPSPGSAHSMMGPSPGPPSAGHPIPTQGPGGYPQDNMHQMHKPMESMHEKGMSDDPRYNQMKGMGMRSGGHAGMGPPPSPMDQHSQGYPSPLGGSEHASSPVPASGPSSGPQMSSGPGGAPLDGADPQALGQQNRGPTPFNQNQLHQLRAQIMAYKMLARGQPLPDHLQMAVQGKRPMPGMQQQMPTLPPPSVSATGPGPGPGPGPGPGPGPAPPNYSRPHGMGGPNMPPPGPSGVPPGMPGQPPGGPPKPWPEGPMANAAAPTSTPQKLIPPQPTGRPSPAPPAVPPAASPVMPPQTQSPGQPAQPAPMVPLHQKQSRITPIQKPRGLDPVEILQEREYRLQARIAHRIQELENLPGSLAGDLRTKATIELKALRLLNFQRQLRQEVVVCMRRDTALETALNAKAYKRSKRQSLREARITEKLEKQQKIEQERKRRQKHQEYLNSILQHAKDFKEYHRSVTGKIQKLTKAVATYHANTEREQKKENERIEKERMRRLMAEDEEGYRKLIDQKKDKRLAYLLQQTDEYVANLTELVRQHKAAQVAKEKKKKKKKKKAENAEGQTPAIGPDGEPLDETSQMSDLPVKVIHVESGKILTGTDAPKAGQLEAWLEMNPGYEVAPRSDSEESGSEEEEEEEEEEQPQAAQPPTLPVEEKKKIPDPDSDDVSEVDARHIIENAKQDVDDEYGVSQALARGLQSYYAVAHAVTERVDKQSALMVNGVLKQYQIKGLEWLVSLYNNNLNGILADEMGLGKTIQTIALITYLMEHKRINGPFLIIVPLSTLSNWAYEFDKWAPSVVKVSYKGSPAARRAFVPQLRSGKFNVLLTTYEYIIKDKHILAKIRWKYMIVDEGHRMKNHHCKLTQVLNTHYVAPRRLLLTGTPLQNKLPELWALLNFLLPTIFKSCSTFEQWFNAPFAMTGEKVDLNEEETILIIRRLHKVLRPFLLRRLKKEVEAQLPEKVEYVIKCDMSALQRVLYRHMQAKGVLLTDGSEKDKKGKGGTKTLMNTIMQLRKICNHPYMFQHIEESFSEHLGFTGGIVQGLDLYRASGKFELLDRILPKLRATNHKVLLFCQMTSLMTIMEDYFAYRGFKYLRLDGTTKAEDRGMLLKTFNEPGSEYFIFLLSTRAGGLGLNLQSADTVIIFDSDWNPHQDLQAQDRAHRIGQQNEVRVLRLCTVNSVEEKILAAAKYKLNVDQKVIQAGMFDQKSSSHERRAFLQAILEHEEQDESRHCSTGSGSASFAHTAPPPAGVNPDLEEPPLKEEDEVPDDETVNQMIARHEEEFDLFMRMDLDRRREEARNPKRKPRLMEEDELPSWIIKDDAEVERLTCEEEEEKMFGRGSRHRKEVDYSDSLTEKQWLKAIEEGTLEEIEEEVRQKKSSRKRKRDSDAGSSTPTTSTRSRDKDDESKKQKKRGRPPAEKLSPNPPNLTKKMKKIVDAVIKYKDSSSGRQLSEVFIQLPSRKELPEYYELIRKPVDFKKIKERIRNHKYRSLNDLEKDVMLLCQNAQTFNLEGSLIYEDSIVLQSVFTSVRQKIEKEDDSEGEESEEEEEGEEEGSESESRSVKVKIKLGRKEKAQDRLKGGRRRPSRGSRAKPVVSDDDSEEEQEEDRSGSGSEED
# [3] = biological target: T1, von Hippel-Lindau disease tumor suppressor/SWI/SNF-related matrix-associated actin-dependent regulator of chromatin subfamily A member 2; assay: In vivo PROTAC activity at VHL/SMARCA2 in SCID mouse xenografted with human NCI-H838 cells assessed as remaining activity in tumor at 50 mg/kg, iv administered as single dose measured after 48 hrs by Western blotting analysis (reference value: 100 +/- 7% ); type: functional, organism-based
# Target sequence in this assay (P40337 whole entry, looked up, the tested form may be a part): as the sequence (P40337 whole entry, looked up, the tested form may be a part) above
# Target sequence in this assay (P51531 whole entry, looked up, the tested form may be a part): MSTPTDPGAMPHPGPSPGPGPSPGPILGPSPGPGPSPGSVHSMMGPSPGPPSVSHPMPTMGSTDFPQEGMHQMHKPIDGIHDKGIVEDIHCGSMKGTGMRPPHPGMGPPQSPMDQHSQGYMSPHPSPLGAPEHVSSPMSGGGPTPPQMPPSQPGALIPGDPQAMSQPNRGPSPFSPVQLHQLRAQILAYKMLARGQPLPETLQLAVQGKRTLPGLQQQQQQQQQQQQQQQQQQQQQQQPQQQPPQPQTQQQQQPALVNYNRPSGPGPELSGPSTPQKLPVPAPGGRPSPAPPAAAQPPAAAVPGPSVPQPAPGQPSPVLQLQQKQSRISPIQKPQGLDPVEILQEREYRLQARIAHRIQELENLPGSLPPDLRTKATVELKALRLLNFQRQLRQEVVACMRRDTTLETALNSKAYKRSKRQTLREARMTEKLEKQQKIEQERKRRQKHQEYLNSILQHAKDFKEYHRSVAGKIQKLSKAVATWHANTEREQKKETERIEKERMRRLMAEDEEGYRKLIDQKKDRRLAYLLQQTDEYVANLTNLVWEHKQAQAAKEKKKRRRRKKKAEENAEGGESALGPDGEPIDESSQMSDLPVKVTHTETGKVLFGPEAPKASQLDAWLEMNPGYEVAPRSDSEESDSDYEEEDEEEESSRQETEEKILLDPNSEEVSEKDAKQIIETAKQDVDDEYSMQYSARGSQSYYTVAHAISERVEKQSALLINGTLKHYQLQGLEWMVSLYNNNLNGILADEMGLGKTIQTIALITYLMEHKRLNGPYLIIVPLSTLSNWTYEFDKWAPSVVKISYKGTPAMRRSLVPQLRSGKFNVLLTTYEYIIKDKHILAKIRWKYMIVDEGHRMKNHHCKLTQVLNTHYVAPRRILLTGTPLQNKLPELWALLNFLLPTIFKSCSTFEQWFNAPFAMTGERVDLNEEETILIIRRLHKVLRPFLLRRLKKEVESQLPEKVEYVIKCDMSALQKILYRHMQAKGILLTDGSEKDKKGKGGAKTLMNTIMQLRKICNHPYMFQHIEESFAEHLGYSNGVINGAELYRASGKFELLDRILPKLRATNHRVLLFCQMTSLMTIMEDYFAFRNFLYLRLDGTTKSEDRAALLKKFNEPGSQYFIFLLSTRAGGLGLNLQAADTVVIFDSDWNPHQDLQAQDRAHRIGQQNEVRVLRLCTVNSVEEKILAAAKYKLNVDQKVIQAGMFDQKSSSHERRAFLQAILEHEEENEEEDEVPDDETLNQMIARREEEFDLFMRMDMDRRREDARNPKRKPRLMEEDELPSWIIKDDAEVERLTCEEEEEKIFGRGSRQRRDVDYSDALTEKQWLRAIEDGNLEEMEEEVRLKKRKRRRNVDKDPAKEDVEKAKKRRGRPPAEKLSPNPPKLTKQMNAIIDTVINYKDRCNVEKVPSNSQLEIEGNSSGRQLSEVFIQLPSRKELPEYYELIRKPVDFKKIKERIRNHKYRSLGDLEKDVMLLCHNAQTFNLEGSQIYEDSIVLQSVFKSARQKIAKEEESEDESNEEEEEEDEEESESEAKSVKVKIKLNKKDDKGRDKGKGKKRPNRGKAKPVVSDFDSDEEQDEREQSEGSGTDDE
# [4] = biological target: T1, von Hippel-Lindau disease tumor suppressor/SWI/SNF-related matrix-associated actin-dependent regulator of chromatin subfamily A member 2; assay: PROTAC activity at VHL/wild-type SMARCA2 in human SK-MEL-28 cells assessed as induction of SMARCA2 degradation incubated for 24 hrs by Western blotting analysis; type: cell-based
# [5] = biological target: T2, von Hippel-Lindau disease tumor suppressor/SWI/SNF-related matrix-associated actin-dependent regulator of chromatin subfamily A member 4; assay: In vivo PROTAC activity at VHL/SMARCA4 in SCID mouse xenografted with human MV4-11 cells assessed as remaining activity in tumor at 50 mg/kg, iv administered as single dose measured after 2 hrs by Western blotting analysis (reference value: 100 +/- 15 % ); type: ADME, organism-based
# [6] = Antiproliferative activity against SMARCA4-deficient human NCI-H1568 cells assessed as cell growth inhibition by measuring maximal efficacy measured after 7 days by WST-8 assay relative to control; type: functional; conditions: time 7 day
# [7] = biological target: T1, von Hippel-Lindau disease tumor suppressor/SWI/SNF-related matrix-associated actin-dependent regulator of chromatin subfamily A member 2; assay: In vivo PROTAC activity at VHL/SMARCA2 in SCID mouse xenografted with human NCI-H838 cells assessed as remaining activity in tumor at 50 mg/kg, iv administered as single dose measured after 24 hrs by Western blotting analysis (reference value: 100 +/- 7% ); type: functional, organism-based
# Target sequence in this assay (P40337 whole entry, looked up, the tested form may be a part): as the sequence (P40337 whole entry, looked up, the tested form may be a part) above
# Target sequence in this assay (P51531 whole entry, looked up, the tested form may be a part): as the sequence (P51531 whole entry, looked up, the tested form may be a part) above
# [8] = biological target: T2, von Hippel-Lindau disease tumor suppressor/SWI/SNF-related matrix-associated actin-dependent regulator of chromatin subfamily A member 4; assay: In vivo PROTAC activity at VHL/SMARCA4 in SCID mouse xenografted with human MV4-11 cells assessed as remaining activity in tumor at 50 mg/kg, iv administered as single dose measured after 48 hrs by Western blotting analysis (reference value: 100 +/- 15 % ); type: ADME, organism-based
# [9] = biological target: T2, von Hippel-Lindau disease tumor suppressor/SWI/SNF-related matrix-associated actin-dependent regulator of chromatin subfamily A member 4; assay: PROTAC activity at VHL/C-terminal HiBiT fused SMARCA4 in human HeLa cells assessed as induction of SMARCA4 degradation by measuring maximal efficacy at 0.001 to 10 uM incubated for 1 hr by Nano-Glo HiBiT analysis relative to control; type: cell-based; conditions: dose 0.001-10 µM
# Target sequence in this assay (P40337 whole entry, looked up, the tested form may be a part): as the sequence (P40337 whole entry, looked up, the tested form may be a part) above
# Target sequence in this assay (P51532 whole entry, looked up, the tested form may be a part): as the sequence (P51532 whole entry, looked up, the tested form may be a part) above
# [10] = biological target: T1, von Hippel-Lindau disease tumor suppressor/SWI/SNF-related matrix-associated actin-dependent regulator of chromatin subfamily A member 2; assay: In vivo PROTAC activity at VHL/SMARCA2 in SCID mouse xenografted with human MV4-11 cells assessed as remaining activity in tumor at 50 mg/kg, iv administered as single dose measured after 72 hrs by Western blotting analysis (reference value: 100 +/- 15 % ); type: ADME, organism-based
# A549 = assay: Antiproliferative activity against SMARCA4-deficient human A549 cells assessed as cell growth inhibition measured after 7 days by WST-8 assay; type: functional; conditions: A549, 168 h, time 7 day
# SK-MEL-5 [11] = assay: Antitumor activity against SMARCA4-deficient human SK-MEL-5 cells xenografted in SCID mouse assessed as tumor growth inhibition at 25 mg/kg, iv administered twice a week measured after 32 days relative to control; type: functional; conditions: SK-MEL-5, 768 h, time 32 day, read-out: TGI
# [12] = biological target: T2, von Hippel-Lindau disease tumor suppressor/SWI/SNF-related matrix-associated actin-dependent regulator of chromatin subfamily A member 4; assay: PROTAC activity at VHL/C-terminal HiBiT fused SMARCA4 in human HeLa cells assessed as induction of SMARCA4 degradation by measuring maximal efficacy at 0.001 to 10 uM incubated for 3 hrs by Nano-Glo HiBiT analysis relative to control; type: cell-based; conditions: dose 0.001-10 µM
# Target sequence in this assay (P40337 whole entry, looked up, the tested form may be a part): as the sequence (P40337 whole entry, looked up, the tested form may be a part) above
# Target sequence in this assay (P51532 whole entry, looked up, the tested form may be a part): as the sequence (P51532 whole entry, looked up, the tested form may be a part) above
# NCI-H1793 = assay: Antiproliferative activity against SMARCA4-deficient human NCI-H1793 cells assessed as cell growth inhibition by measuring maximal efficacy measured after 7 days by WST-8 assay relative to control; type: functional; conditions: time 7 day
# [13] = biological target: T2, von Hippel-Lindau disease tumor suppressor/SWI/SNF-related matrix-associated actin-dependent regulator of chromatin subfamily A member 4; assay: PROTAC activity at VHL/C-terminal HiBiT fused SMARCA4 in human HeLa cells assessed as induction of SMARCA4 degradation by measuring maximal efficacy at 0.001 to 10 uM incubated for 48 hrs by Nano-Glo HiBiT analysis relative to control; type: cell-based; conditions: dose 0.001-10 µM
# Target sequence in this assay (P40337 whole entry, looked up, the tested form may be a part): as the sequence (P40337 whole entry, looked up, the tested form may be a part) above
# Target sequence in this assay (P51532 whole entry, looked up, the tested form may be a part): as the sequence (P51532 whole entry, looked up, the tested form may be a part) above
# [14] = biological target: T1, von Hippel-Lindau disease tumor suppressor/SWI/SNF-related matrix-associated actin-dependent regulator of chromatin subfamily A member 2; assay: PROTAC activity at VHL/C-terminal HiBiT fused SMARCA2 in human HeLa cells assessed as induction of SMARCA2 degradation by measuring maximal efficacy incubated for 24 hrs by Nano-Glo HiBiT analysis relative to control; type: cell-based
# Target sequence in this assay (P40337 whole entry, looked up, the tested form may be a part): as the sequence (P40337 whole entry, looked up, the tested form may be a part) above
# Target sequence in this assay (P51531 whole entry, looked up, the tested form may be a part): as the sequence (P51531 whole entry, looked up, the tested form may be a part) above
# SK-MEL-5 [15] = assay: Antitumor activity against SMARCA4-deficient human SK-MEL-5 cells xenografted in SCID mouse assessed as tumor growth inhibition at 50 mg/kg, iv administered twice a week measured after 32 days relative to control; type: functional; conditions: SK-MEL-5, 768 h, time 32 day, read-out: TGI
# [16] = biological target: T1, von Hippel-Lindau disease tumor suppressor/SWI/SNF-related matrix-associated actin-dependent regulator of chromatin subfamily A member 2; assay: In vivo PROTAC activity at VHL/SMARCA2 in SCID mouse xenografted with human NCI-H838 cells assessed as reduction of SMARCA2 level in tumor at 50 mg/kg, iv administered as single dose measured after 48 hrs by Western blotting analysis; type: functional, organism-based; design: scale not given: the % may be the effect or the level left
# Target sequence in this assay (P40337 whole entry, looked up, the tested form may be a part): as the sequence (P40337 whole entry, looked up, the tested form may be a part) above
# Target sequence in this assay (P51531 whole entry, looked up, the tested form may be a part): as the sequence (P51531 whole entry, looked up, the tested form may be a part) above
# [17] = biological target: T2, von Hippel-Lindau disease tumor suppressor/SWI/SNF-related matrix-associated actin-dependent regulator of chromatin subfamily A member 4; assay: In vivo PROTAC activity at VHL/SMARCA4 in SCID mouse xenografted with human MV4-11 cells assessed as reduction of SMARCA4 level in tumor at 50 mg/kg, iv administered as single dose measured after 48 hrs by Western blotting analysis; type: ADME, organism-based; design: scale not given: the % may be the effect or the level left
# [18] = biological target: T2, von Hippel-Lindau disease tumor suppressor/SWI/SNF-related matrix-associated actin-dependent regulator of chromatin subfamily A member 4; assay: PROTAC activity at VHL/C-terminal HiBiT fused SMARCA4 in human HeLa cells assessed as induction of SMARCA4 degradation by measuring maximal efficacy at 0.001 to 10 uM incubated for 24 hrs by Nano-Glo HiBiT analysis relative to control; type: cell-based; conditions: dose 0.001-10 µM
# Target sequence in this assay (P40337 whole entry, looked up, the tested form may be a part): as the sequence (P40337 whole entry, looked up, the tested form may be a part) above
# Target sequence in this assay (P51532 whole entry, looked up, the tested form may be a part): as the sequence (P51532 whole entry, looked up, the tested form may be a part) above
# [19] = biological target: T1, von Hippel-Lindau disease tumor suppressor/SWI/SNF-related matrix-associated actin-dependent regulator of chromatin subfamily A member 2; assay: In vivo PROTAC activity at VHL/SMARCA2 in SCID mouse xenografted with human MV4-11 cells assessed as remaining activity in tumor at 50 mg/kg, iv administered as single dose measured after 48 hrs by Western blotting analysis (reference value: 100 +/- 15 % ); type: ADME, organism-based
# NCI-H1975 = assay: Antiproliferative activity against human NCI-H1975 cells expressing wild-type SMARCA2 assessed as cell growth inhibition measured after 7 days by WST-8 assay; type: functional; conditions: NCI-H1975, 168 h, time 7 day
# SK-MEL-5 [20] = assay: Antiproliferative activity against SMARCA4-deficient human SK-MEL-5 cells assessed as cell growth inhibition by measuring maximal efficacy measured after 7 days by WST-8 assay relative to control; type: functional; conditions: time 7 day
# [21] = biological target: T1, von Hippel-Lindau disease tumor suppressor/SWI/SNF-related matrix-associated actin-dependent regulator of chromatin subfamily A member 2; assay: In vivo PROTAC activity at VHL/SMARCA2 in SCID mouse xenografted with human MV4-11 cells assessed as reduction of SMARCA2 level in tumor at 50 mg/kg, iv administered as single dose measured after 96 hrs by Western blotting analysis; type: ADME, organism-based; design: scale not given: the % may be the effect or the level left
# [22] = biological target: T2, von Hippel-Lindau disease tumor suppressor/SWI/SNF-related matrix-associated actin-dependent regulator of chromatin subfamily A member 4; assay: PROTAC activity at VHL/C-terminal HiBiT fused SMARCA4 in human HeLa cells assessed as induction of SMARCA4 degradation incubated for 48 hrs by Nano-Glo HiBiT analysis; type: cell-based
smiles,measurement,setting,value
Cc1ncsc1-c1ccc([C@H](C)NC(=O)[C@@H]2C[C@@H](O)CN2C(=O)[C@@H](NC(=O)[C@H]2CC[C@H](CN3CC4(CCC(n5cc(-c6cc(-c7ccccc7O)nnc6N)cn5)CC4)C3)CC2)C(C)(C)C)cc1,DC50,[1],63 nM
same,Emax,[2],49%
same,Activity,[3],25%
same,DC50,[4],35 nM
same,Activity,[5],93%
same,Imax,[6],79%
same,Activity,[7],9%
same,Activity,[8],87%
same,Emax,[9],20%
same,Activity,[10],44%
same,GI50,A549,42 nM
same,inhibition in vivo at 25 mg/kg,SK-MEL-5 [11],54%
same,Emax,[12],46%
same,Imax,NCI-H1793,69%
same,Emax,[13],68%
same,Emax,[14],91%
same,inhibition in vivo at 50 mg/kg,SK-MEL-5 [15],74%
same,Activity,[16],75%
same,Activity,[17],13%
same,Emax,[18],57%
same,Activity,[19],17%
same,GI50,NCI-H1975,> 10000 nM
same,Imax,SK-MEL-5 [20],95%
same,Activity,[21],74%
same,DC50,[22],174 nM
